Results on two compounds are retold here after patent US11406642B2, “DNP and DNP prodrug treatment of neuromuscular, neurodegenerative, autoimmune, developmental, traumatic brain injury, concussion, dry eye disease, hearing loss and/or metabolic diseases” (priority 2016, dated 2022).

Series [1] in a line: Plasma pharmacokinetics of II-38 and 2,4-DNP released from II-38. Format: in vivo, Sprague-Dawley male rats. The note with it: for half-life: read-out: t1/2 of II-38; for bioavailability: read-out: % F of II-38. The procedure: The oral bioavailability and plasma pharmacokinetic (PK) properties of II-38 prodrug and 2,4-DNP-released from II-38 prodrug was investigated in Sprague-Dawley (S-D) male rats after a single i.v. injection of II-38 at 1.6 mg/kg (eq. to 1 mg/kg 2,4-DNP) and an oral dose eq. to 5, 25 and 50 mg/kg of 2,4-DNP. Blood samples were taken up to […].
All procedures that involved the use of rats were conducted in accordance with the guidelines set forth by the University of Arkansas for Medical Sciences (UAMS) Institutional Animal Care and Use Committee established by the National Institutes of Health's Guide for the Care and Use of Laboratory Animals (1996). Male Sprague-Dawley rats weighing 250-300 grams were housed three per cage with ad libitum access to food and water in the Division of Laboratory Animal Resources, UAMS. Rats were anesthetized with isofluorane (2-5%)/oxygen (1.5-2.0 L/min) and surgically implanted with cannulae in the jugular (i.v. dosing) and femoral (blood sampling) veins. […] Following appropriate evidence of successful recovery from surgery, IV or oral dosing was performed and blood samples (0.15 mL) were collected at 0, 5, 15, 30, 45, 60, 120, 240 and 480 min. Plasma samples were prepared and analysis was run using a LC/MS/MS spectrometry.
For the i.v. injection, a total volume of 0.8 mL/kg was used at a dose of 1.6 mg/kg (eq. to 1 mg/kg of 2,4-DNP). For the oral route, stock solutions of II-38 containing eq. to 1, 5 and 25 mg/mL of 2,4-DNP were prepared and administered to rats at final doses eq. to 1, 5 and 25 mg/kg of 2,4-DNP, respectively. An oral dose of 8 mg/kg of II-38 (eq. to 5 mg/kg) was dissolved in a phosphate-saline buffer solution, pH 7.4 containing 5% DMSO and 20% PEG-400, while a dose of 40 mg/kg (eq. to 25 mg/kg) was formulated with 0.5% methyl cellulose (methocel) containing 1% DMSO. A high dose of II-38 (eq. 50 mg/kg) was formulated with water containing 1% DMSO and 40% PEG-400. Because of the different vehicles used in formulations of II-38, a dose eq. to 25 mg/kg of 2,4-DNP was repeated using a vehicle consisting of DMSO, PEG-400, and water (1%: 40%: 59%). The later dose was utilized for comparison of PK data of 2,4-DNP-released from II-38 for differences in formulations.
Jugular and femoral vein-catheterized Sprague-Dawley male rats (weights 250-300 g, n=4) were treated with II-38 at a single oral dose of 8, 40 and 80 mg/kg (eq. to 5, 25 and 50 mg/kg of 2,4-DNP, respectively) or injected a single i.v. dose of 1.6 mg/kg of II-38 (eq. to 1 mg/kg 2,4-DNP, n=2). Blood samples (0.15 mL) were collected at 0, 5, 15, 30, 45, 60, 120, 240 and 480 min. Plasma samples were prepared and 2,4-DNP, II-38 and 2,4-DNP-released from II-38 concentrations were quantitated using the LC/MS/MS spectrometry assay method described below.
To isolate the analytes from rat plasma, 50 μL of control or treated plasma fortified with 10 μL of 2,4-DNP-d3 (10 μg/mL) as an internal standard to which 0.3 mL of methanol followed by 0.3 mL of acetonitrile was added. The mixture was vortex-mixed for 30 s and centrifuged for 10 min at 10,000 rpm at room temperature. The supernatant was transferred into 5 mL glass tubes and evaporated to dryness at 37° C. under nitrogen gas. The pellet was reconstituted with 50 μL of acetonitrile, vortex-mixed for 30 sec, followed by sonication for 1 min. Following centrifugation at 1000 rpm for 10 min at room temperature, 5 μL of the supernatant was then injected onto the column, and analytes were quantified by a LC/MS/MS spectrometry.
1—Plasma concentrations of 2,4-DNP after a single i.v. injection of 2,4-DNP of 1 mg/kg or 5 mg/kg oral administration; 2—Plasma concentrations of II-38 and 2,4-DNP-released from II-38 after an i.v. injection 1.6 mg/kg of II-38 eq. to 1 mg/kg of 2,4-DNP or an oral dose of 8, 40 and 80 mg/kg of II-38 eq. to 5, 25 and 50 mg/kg of 2,4-DNP, respectively. […]

In a further series the test system is ion channels. Description: Inhibition of ion channels. The source says: Overt reactive oxygen species (ROSs) can be produced due to noise and certain ototoxic drugs that can damage the hair cells of the ear, resulting in either temporary or permanent hearing loss. Exposure to blast waves and continuous noise not only damaged the inner ear, but caused cell death in the hippocampus, suppressed neurogenesis and impaired memory function. Aging as well can manifest in mitochondrial dysfunction leading to hearing loss. It is emerging that attempts to treat hearing loss by targeting downstream issues is not very effective. In one embodiment, the compositions and methods of the invention relate to targeting oxidative stress upstream at the mitochondria that may be causative for many disorders. There have been a variety of attempts to lower cellular stress, such as administering anti-oxidants, however these drugs have limited tissue penetration into the brain and lower ROSs after they have been formed. […] While not being bound to theory, it is postulated that DNP modulates the mitochondrial membrane potential having a significant impact at preventing ROS formation in isolated mitochondria and in the treated wildtype mice. DNP treatment 3-hours post-ischemia reduced cerebral infarct volume 40% by protecting the penumbra or “threaten tissue” and could provide similar benefits after a blast to protect inner hair cells from eminent cell death. […]

Series [2] deals with mouse model of Alzheimer's disease. Description: Alzheimer's disease mouse model, Morris Water Maze. Format: in vivo. The note with it: chronic treatment. From the text: In one embodiment, the invention provides compositions and methods for treating neurodegenerative diseases such as Alzheimer's disease, Parkinson, and Huntington's disease. It is believed that the complete lack of historic success is due to most pharmaceutical industries focusing on a downstream event, such as plaques/tangles, whereas the issue is likely upstream at the mitochondria causing high cellular stress.

[3] abbreviates: male, Sprague-Dawley, rat, in vivo, iv, 1.6 mg/kg, single i.v. injection of II-38 1.6 mg/kg (eq. to 1 mg/kg 2,4-DNP), n = 2.
Setting [4] is: male, Sprague-Dawley, rat, in vivo, po, 5 mg/kg, oral II-38 eq. to 5 mg/kg of 2,4-DNP.
The mark [5] stands for this setting: male, Sprague-Dawley, rat, in vivo, po, 25 mg/kg, oral II-38 eq. to 25 mg/kg of 2,4-DNP, PEG-400.
Where [6] appears, read: male, Sprague-Dawley, rat, in vivo, po, 25 mg/kg, oral II-38 eq. to 25 mg/kg of 2,4-DNP, methocel.
[7] abbreviates: male, Sprague-Dawley, rat, in vivo, po, 50 mg/kg, oral II-38 eq. 50 mg/kg of 2,4-DNP.

Structures are written as SMILES. Read-outs that look alike come from different tables or passages of the source.

Consider `O=[N+]([O-])c1ccc(O)c([N+](=O)[O-])c1` [2,4-DNP, 2,4-dinitrophenol], for which the “fold increased level of 2,4-DNP after oral 2,4-DNP compared to 2,4-DNP released from II-38” value in series [1] (2,4-DNP 5 mg/kg oral vs II-38 oral eq. to 5 mg/kg) was “approximately 12.0 fold”; in series [1] (2,4-DNP 5 mg/kg oral vs II-38 oral eq. to 25 mg/kg (PEG-400)), roughly 3.4 fold; in series [1] (2,4-DNP 5 mg/kg oral vs II-38 oral eq. to 25 mg/kg (methocel)) it was roughly 2.2 fold; in series [1] (2,4-DNP 5 mg/kg oral vs II-38 oral eq. to 50 mg/kg) it was roughly 1.4 fold. The “inhibition to ion channels” value in the series with ion channels is on record as “no inhibition”. Besides, in series [2], the “short term memory in the Morris Water Maze” value is listed as “strikingly improved”.

In the case of `O=C(Oc1ccc([N+](=O)[O-])cc1[N+](=O)[O-])N1CCOCC1` [II-38, 2,4-Dinitrophenyl morpholine-4-carboxylate], the AUC in series [1] (setting [3]) was 8600 ng·h/mL; in series [1] (setting [4]), 15000 ng·h/mL; in series [1] (setting [5]), 14600 ng·h/mL; in series [1] (setting [6]), 18400 ng·h/mL; in series [1] (setting [7]), 24300 ng·h/mL. Besides, the peak concentration (Cmax) in series [1] (setting [3]) amounted to 900 ± 50 ng/mL; in series [1] (setting [4]), 1100 ± 200 ng/mL; in series [1] (setting [5]), 2410 ± 300 ng/mL; in series [1] (setting [6]), 1800 ± 300 ng/mL; in series [1] (setting [7]), 1900 ± 600 ng/mL. The half-life in series [1] (setting [3]) was determined as 6.89 ± 1.09 h; in series [1] (setting [4]), 15.2 ± 7 h; in series [1] (setting [5]), 7.41 ± 3.06 h; in series [1] (setting [6]), 11 ± 4.2 h; in series [1] (setting [7]), 17.7 ± 6.96 h. In addition, the clearance in series [1] (male, Sprague-Dawley, rat, in vivo, iv, single i.v. injection of II-38 1.6 mg/kg (eq. to 1 mg/kg 2,4-DNP), n = 2, read-out: Cl of II-38) was 3.1 ± 0.3 mL/min/kg. The Vd in series [1] (male, Sprague-Dawley, rat, in vivo, iv, single i.v. injection of II-38 1.6 mg/kg (eq. to 1 mg/kg 2,4-DNP), n = 2, read-out: Vss of II-38) came out at 1.86 ± 0.101 L/kg. Further, the Tmax in series [1] (setting [4]) is 2.19 h; in series [1] (setting [5]), 1.5 h; in series [1] (setting [6]), 0.458 h; in series [1] (setting [7]), 1.69 h. Moreover, the bioavailability in series [1] (setting [4]) amounted to 44.8 ± 4.4%; in series [1] (setting [5]), 21.3 ± 0.9%; in series [1] (setting [6]), 31.6 ± 1.2%; in series [1] (setting [7]) it was 24.5 ± 1.1%.
